Test results reported in patent US5403726A, “Enzymatic process for producing a galactosylβ1,3glycal disaccaride using β-galactosidase” (priority 1992, dated 1995).

Molecular target: β-galactosidase (E. coli) (Escherichia coli, UniProt P00722)
Assay: β-galactosidase-mediated coupling reaction with glycal as potential acceptor
Format: biochemical
Details: donor GalβpNO2 Ph (Compound 1); no reaction product
Excerpt: To increase the yield of disaccharide, activated donors were used illustratively here in the kinetic method of glycosidic bond formation. [Nilsson, I. Trends Biotechnol., 6:256 (1988) and the citations therein]. Disaccharide formation was initially examined using commercially available E. coli β-galactosidase [EC 3.2.1.23] and 4-nitrophenyl β-galactopyranoside (Compound 1) as the galactose donor and glucal (Compound 2) [Hodgson, Biotechnology, 9:609 (1991)] as the acceptor. The reaction was monitored by thin layer chromatograph (TLC). After no additional nitrophenyl galactoside appeared to be consumed (19-26 hours), the reaction was terminated.
In a typical procedure, Compound 1 (77 mg, 0.26 mmol) and […] (54 mg, 0.36 mmol) were combined at 25° C. with E. coli β-galactosidase (75 units) in 4 mL of a 0.07 M PIPES/0.2M NaOAc/0.1M EDTA solution at pH 6.5. The progress of the reaction was monitored by TLC (silica gel, 7:2:1 iPrOH--NH4 OH--H2 O). After 26 hours, the solvent was removed in vacuo and the residue treated with acetic anhydride (2 mL) and pyridine (2 mL). After an additional 12 hours, the mixture was concentrated in vacuo and the residue purified by silica gel chromatography (2:3 ethyl acetate-hexanes) to afford a 2.3:1 mixture of β-1,3 and β-1,6 isomers (72 mg, 50 percent). […] The position of the glycoside linkage was unambiguously determined by ^1 H NMR decoupling studies. […]

Sequence of β-galactosidase (E. coli) (P00722 whole entry): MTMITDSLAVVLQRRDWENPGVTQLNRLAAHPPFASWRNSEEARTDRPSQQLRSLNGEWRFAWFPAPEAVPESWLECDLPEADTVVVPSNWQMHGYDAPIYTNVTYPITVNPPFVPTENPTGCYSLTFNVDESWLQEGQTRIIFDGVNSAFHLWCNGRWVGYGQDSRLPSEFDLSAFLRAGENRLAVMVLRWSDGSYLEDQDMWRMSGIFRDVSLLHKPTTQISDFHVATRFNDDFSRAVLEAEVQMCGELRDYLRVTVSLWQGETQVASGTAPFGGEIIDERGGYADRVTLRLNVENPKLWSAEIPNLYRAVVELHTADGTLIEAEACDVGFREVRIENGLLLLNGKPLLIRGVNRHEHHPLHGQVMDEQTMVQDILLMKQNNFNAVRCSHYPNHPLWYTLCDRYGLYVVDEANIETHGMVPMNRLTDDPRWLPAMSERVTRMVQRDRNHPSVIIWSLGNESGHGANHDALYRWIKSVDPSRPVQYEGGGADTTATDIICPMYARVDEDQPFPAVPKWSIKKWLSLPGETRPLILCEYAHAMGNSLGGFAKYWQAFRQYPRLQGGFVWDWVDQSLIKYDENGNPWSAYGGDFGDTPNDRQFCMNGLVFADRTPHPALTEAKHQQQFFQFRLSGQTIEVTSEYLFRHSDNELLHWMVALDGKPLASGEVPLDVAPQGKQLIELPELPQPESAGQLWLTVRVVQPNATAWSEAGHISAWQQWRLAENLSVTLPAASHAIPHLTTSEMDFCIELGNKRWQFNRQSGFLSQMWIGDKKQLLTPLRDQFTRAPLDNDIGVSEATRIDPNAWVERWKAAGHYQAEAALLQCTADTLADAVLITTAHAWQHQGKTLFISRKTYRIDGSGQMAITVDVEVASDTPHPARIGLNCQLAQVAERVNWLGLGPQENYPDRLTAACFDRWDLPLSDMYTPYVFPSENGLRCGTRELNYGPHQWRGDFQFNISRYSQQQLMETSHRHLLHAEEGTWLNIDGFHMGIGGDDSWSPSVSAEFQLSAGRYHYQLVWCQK

With `OC[C@H]1OC=C[C@@H](O)[C@H]1O` [Galactal] the “behaviour as potential acceptor in the β-galactosidase coupling reaction (inhibitor)” value was “acted as an inhibitor”.
